# Reference: patent publication US11912686B2 (Gilead Sciences, Inc., priority 2020, dated 2024)
# Target: human LPAR1 (Homo sapiens (Human), UniProt Q92633)
# Experiment: LPAR1 intracellular calcium mobilization assay (antagonist mode, FLIPR)
# Type: cell-based
# Details: CHO-K1 EDG2 cells expressing human LPAR1, LPA 18:2 at EC80 (100 nM), test compound 0.5 nM to 10 μM
# Chain of human LPAR1 (Q92633 whole entry): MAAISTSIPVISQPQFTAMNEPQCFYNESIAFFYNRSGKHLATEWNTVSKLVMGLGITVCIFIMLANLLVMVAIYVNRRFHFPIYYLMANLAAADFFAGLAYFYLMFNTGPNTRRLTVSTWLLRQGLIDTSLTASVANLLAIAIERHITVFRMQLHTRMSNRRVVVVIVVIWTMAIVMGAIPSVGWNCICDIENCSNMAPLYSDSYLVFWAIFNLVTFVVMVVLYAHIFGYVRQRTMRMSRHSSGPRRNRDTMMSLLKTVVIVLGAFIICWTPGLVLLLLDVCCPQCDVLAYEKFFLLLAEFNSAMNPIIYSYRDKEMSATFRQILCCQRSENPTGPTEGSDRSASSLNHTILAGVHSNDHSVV
row,Structure (SMILES),EC50
1,"C[C@@H](OC(=O)Nc1c(-c2ccc(NC(=O)CC(F)F)cn2)nnn1C)c1cccnc1Cl [Compound 107, (R)-1-(2-chloropyridin-3-yl)ethyl (4-(5-(3,3-difluoropropanamido)pyridin-2-yl)-1-methyl-1H-1,2,3-triazol-5-yl)carbamate]",10000 nM
2,"C[C@@H](OC(=O)Nc1c(-c2ccc(NC(=O)C3CC(C)(O)C3)cn2)nnn1C)c1cccnc1Cl (stereo partly drawn) [Compound 108, (R)-1-(2-chloropyridin-3-yl)ethyl (4-(5-(3-hydroxy-3-methylcyclobutane-1-carboxamido)pyridin-2-yl)-1-methyl-1H-1,2,3-triazol-5-yl)carbamate]",420 nM
3,"C[C@@H](OC(=O)Nc1c(-c2ccc(NC(=O)C3CC(C)(O)C3)cn2)nnn1C)c1cccnc1Cl (stereo partly drawn) [Compound 109, (R)-1-(2-chloropyridin-3-yl)ethyl (4-(5-(3-hydroxy-3-methylcyclobutane-1-carboxamido)pyridin-2-yl)-1-methyl-1H-1,2,3-triazol-5-yl)carbamate]",1710 nM
4,"C[C@@H](OC(=O)Nc1c(-c2ccc(NC(=O)C3(CF)CC3)cn2)nnn1C)c1cccnc1Cl [Compound 110, (R)-1-(2-chloropyridin-3-yl)ethyl (4-(5-(1-(fluoromethyl)cyclopropane-1-carboxamido)pyridin-2-yl)-1-methyl-1H-1,2,3-triazol-5-yl)carbamate]",68.2 nM
5,"C[C@@H](OC(=O)Nc1c(-c2ccc(NC(=O)C#CC(C)(C)O)cn2)nnn1C)c1cccnc1Cl [Compound 111, (R)-1-(2-chloropyridin-3-yl)ethyl (4-(5-(4-hydroxy-4-methylpent-2-ynamido)pyridin-2-yl)-1-methyl-1H-1,2,3-triazol-5-yl)carbamate]",191 nM
6,"C[C@@H](OC(=O)Nc1c(-c2ccc(NC(=O)c3cnn(C)c3)cn2)nnn1C)c1cccnc1Cl [Compound 112, (R)-1-(2-chloropyridin-3-yl)ethyl (1-methyl-4-(5-(1-methyl-1H-pyrazole-4-carboxamido)pyridin-2-yl)-1H-1,2,3-triazol-5-yl)carbamate]",1400 nM
7,"C[C@@H](OC(=O)Nc1c(-c2ccc(NC(=O)c3cn[nH]c3)cn2)nnn1C)c1cccnc1Cl [Compound 113, (R)-1-(2-chloropyridin-3-yl)ethyl (4-(5-(1H-pyrazole-4-carboxamido)pyridin-2-yl)-1-methyl-1H-1,2,3-triazol-5-yl)carbamate]",775 nM
8,"C[C@@H](OC(=O)Nc1c(-c2ccc(NC(=O)C34CCC(F)(CC3)CC4)cn2)nnn1C)c1cccnc1Cl [Compound 114, (R)-1-(2-chloropyridin-3-yl)ethyl (4-(5-(4-fluorobicyclo[2.2.2]octane-1-carboxamido)pyridin-2-yl)-1-methyl-1H-1,2,3-triazol-5-yl)carbamate]",504 nM
9,"C[C@@H](OC(=O)Nc1c(-c2ccc(NC(=O)C34CCC(O)(CC3)CC4)cn2)nnn1C)c1cccnc1Cl [Compound 115, (R)-1-(2-chloropyridin-3-yl)ethyl (4-(5-(4-hydroxybicyclo[2.2.2]octane-1-carboxamido)pyridin-2-yl)-1-methyl-1H-1,2,3-triazol-5-yl)carbamate]",654 nM
10,"C[C@@H](OC(=O)Nc1c(-c2ccc(NC(=O)C3(C(F)F)CC3)cn2)nnn1C)c1cccnc1Cl [Compound 116, (R)-1-(2-chloropyridin-3-yl)ethyl (4-(5-(1-(difluoromethyl)cyclopropane-1-carboxamido)pyridin-2-yl)-1-methyl-1H-1,2,3-triazol-5-yl)carbamate]",322 nM
11,"C[C@@H](OC(=O)Nc1c(-c2ccc(NC(=O)C34CC(O)(C3)C4)cn2)nnn1C)c1cccnc1Cl [Compound 117, (R)-1-(2-chloropyridin-3-yl)ethyl (4-(5-(3-hydroxybicyclo[1.1.1]pentane-1-carboxamido)pyridin-2-yl)-1-methyl-1H-1,2,3-triazol-5-yl)carbamate]",1140 nM
12,"C[C@@H](OC(=O)Nc1c(-c2ccc(NC(=O)CC(C)(C)O)cn2)nnn1C)c1cccnc1Cl [Compound 118, (R)-1-(2-chloropyridin-3-yl)ethyl (4-(5-(3-hydroxy-3-methylbutanamido)pyridin-2-yl)-1-methyl-1H-1,2,3-triazol-5-yl)carbamate]",1340 nM
13,"C[C@@H](OC(=O)Nc1c(-c2ccc(NC(=O)C3(C(F)F)CC(F)(F)C3)cn2)nnn1C)c1cccnc1Cl [Compound 119, (R)-1-(2-chloropyridin-3-yl)ethyl (4-(5-(1-(difluoromethyl)-3,3-difluorocyclobutane-1-carboxamido)pyridin-2-yl)-1-methyl-1H-1,2,3-triazol-5-yl)carbamate]",49.9 nM
14,"C[C@@H](OC(=O)Nc1c(-c2ccc(NC(=O)C3(C(F)(F)F)CC(=O)C3)cn2)nnn1C)c1cccnc1Cl [Compound 120, (R)-1-(2-chloropyridin-3-yl)ethyl (1-methyl-4-(5-(3-oxo-1-(trifluoromethyl)cyclobutane-1-carboxamido)pyridin-2-yl)-1H-1,2,3-triazol-5-yl)carbamate]",2470 nM
15,"C[C@@H](OC(=O)Nc1c(-c2ccc(NC(=O)[C@]3(C)C[C@H](C#N)C3)cn2)nnn1C)c1cccnc1Cl [Compound 121, (R)-1-(2-chloropyridin-3-yl)ethyl (4-(5-((1s,3S)-3-cyano-1-methylcyclobutane-1-carboxamido)pyridin-2-yl)-1-methyl-1H-1,2,3-triazol-5-yl)carbamate]",264 nM
16,"C[C@@H](OC(=O)Nc1c(-c2ccc(NC(=O)[C@]3(C)C[C@@H](C#N)C3)cn2)nnn1C)c1cccnc1Cl [Compound 122, (R)-1-(2-chloropyridin-3-yl)ethyl (4-(5-((1r,3R)-3-cyano-1-methylcyclobutane-1-carboxamido)pyridin-2-yl)-1-methyl-1H-1,2,3-triazol-5-yl)carbamate]",123 nM
17,"C[C@@H](OC(=O)Nc1c(-c2ccc(NC(=O)C3CC(F)(C#N)C3)cn2)nnn1C)c1cccnc1Cl (stereo partly drawn) [Compound 123, (R)-1-(2-chloropyridin-3-yl)ethyl (4-(5-(3-cyano-3-fluorocyclobutane-1-carboxamido)pyridin-2-yl)-1-methyl-1H-1,2,3-triazol-5-yl)carbamate]",626 nM
18,"C[C@@H](O)C(=O)Nc1ccc(-c2nnn(C)c2NC(=O)O[C@H](C)c2cccnc2Cl)nc1 [Compound 124, (R)-1-(2-chloropyridin-3-yl)ethyl (4-(5-((R)-2-hydroxypropanamido)pyridin-2-yl)-1-methyl-1H-1,2,3-triazol-5-yl)carbamate]",3630 nM
19,"C[C@H](O)C(=O)Nc1ccc(-c2nnn(C)c2NC(=O)O[C@H](C)c2cccnc2Cl)nc1 [Compound 125, (R)-1-(2-chloropyridin-3-yl)ethyl (4-(5-((S)-2-hydroxypropanamido)pyridin-2-yl)-1-methyl-1H-1,2,3-triazol-5-yl)carbamate]",2710 nM
20,"C[C@@H](OC(=O)Nc1c(-c2ccc(NC(=O)CO)cn2)nnn1C)c1cccnc1Cl [Compound 126, (R)-1-(2-chloropyridin-3-yl)ethyl (4-(5-(2-hydroxyacetamido)pyridin-2-yl)-1-methyl-1H-1,2,3-triazol-5-yl)carbamate]",1830 nM
21,"C[C@@H](OC(=O)Nc1c(-c2ccc(NC(=O)[C@H]3C[C@H](C#N)C3)cn2)nnn1C)c1cccnc1Cl [Compound 127, (R)-1-(2-chloropyridin-3-yl)ethyl (4-(5-((1r,3R)-3-cyanocyclobutane-1-carboxamido)pyridin-2-yl)-1-methyl-1H-1,2,3-triazol-5-yl)carbamate]",416 nM
22,"C[C@@H](OC(=O)Nc1c(-c2ccc(NC(=O)[C@H]3C[C@@H](C#N)C3)cn2)nnn1C)c1cccnc1Cl [Compound 128, (R)-1-(2-chloropyridin-3-yl)ethyl (4-(5-((1s,3S)-3-cyanocyclobutane-1-carboxamido)pyridin-2-yl)-1-methyl-1H-1,2,3-triazol-5-yl)carbamate]",309 nM
23,"C[C@@H](OC(=O)Nc1c(-c2ccc(NC(=O)C(C)(C)C#N)cn2)nnn1C)c1cccnc1Cl [Compound 129, (R)-1-(2-chloropyridin-3-yl)ethyl (4-(5-(2-cyano-2-methylpropanamido)pyridin-2-yl)-1-methyl-1H-1,2,3-triazol-5-yl)carbamate]",492 nM
24,"C[C@@H](OC(=O)Nc1c(-c2ccc(NC(=O)C3CC3C#N)cn2)nnn1C)c1cccnc1Cl (stereo partly drawn) [Compound 130, (R)-1-(2-chloropyridin-3-yl)ethyl (4-(5-(2-cyanocyclopropane-1-carboxamido)pyridin-2-yl)-1-methyl-1H-1,2,3-triazol-5-yl)carbamate]",271 nM
25,"C[C@@H](OC(=O)Nc1c(-c2ccc(NC(=O)C3(F)CC(F)C3)cn2)nnn1C)c1cccnc1Cl (stereo partly drawn) [Compound 131, (R)-1-(2-chloropyridin-3-yl)ethyl (4-(5-(1,3-difluorocyclobutane-1-carboxamido)pyridin-2-yl)-1-methyl-1H-1,2,3-triazol-5-yl)carbamate]",260 nM
26,"C[C@@H](OC(=O)Nc1c(-c2ccc(NC(=O)C3(C#N)CC(F)C3)cn2)nnn1C)c1cccnc1Cl (stereo partly drawn) [Compound 132, (R)-1-(2-chloropyridin-3-yl)ethyl (4-(5-(1-cyano-3-fluorocyclobutane-1-carboxamido)pyridin-2-yl)-1-methyl-1H-1,2,3-triazol-5-yl)carbamate]",197 nM
27,"C[C@@H](OC(=O)Nc1c(-c2ccc(NC(=O)[C@]3(F)C[C@H](O)C3)cn2)nnn1C)c1cccnc1Cl [Compound 133, (R)-1-(2-chloropyridin-3-yl)ethyl (4-(5-((1r,3R)-1-fluoro-3-hydroxycyclobutane-1-carboxamido)pyridin-2-yl)-1-methyl-1H-1,2,3-triazol-5-yl)carbamate]",344 nM
28,"C[C@@H](OC(=O)Nc1c(-c2ccc(NC(=O)[C@]3(F)C[C@@H](O)C3)cn2)nnn1C)c1cccnc1Cl [Compound 134, (R)-1-(2-chloropyridin-3-yl)ethyl (4-(5-((1s,3S)-1-fluoro-3-hydroxycyclobutane-1-carboxamido)pyridin-2-yl)-1-methyl-1H-1,2,3-triazol-5-yl)carbamate]",449 nM
